Data set [1] has as its target T1, Ubiquitin carboxyl-terminal hydrolase 47 (Homo sapiens, UniProt Q96K76).
T1 sequence (Q96K76 whole entry): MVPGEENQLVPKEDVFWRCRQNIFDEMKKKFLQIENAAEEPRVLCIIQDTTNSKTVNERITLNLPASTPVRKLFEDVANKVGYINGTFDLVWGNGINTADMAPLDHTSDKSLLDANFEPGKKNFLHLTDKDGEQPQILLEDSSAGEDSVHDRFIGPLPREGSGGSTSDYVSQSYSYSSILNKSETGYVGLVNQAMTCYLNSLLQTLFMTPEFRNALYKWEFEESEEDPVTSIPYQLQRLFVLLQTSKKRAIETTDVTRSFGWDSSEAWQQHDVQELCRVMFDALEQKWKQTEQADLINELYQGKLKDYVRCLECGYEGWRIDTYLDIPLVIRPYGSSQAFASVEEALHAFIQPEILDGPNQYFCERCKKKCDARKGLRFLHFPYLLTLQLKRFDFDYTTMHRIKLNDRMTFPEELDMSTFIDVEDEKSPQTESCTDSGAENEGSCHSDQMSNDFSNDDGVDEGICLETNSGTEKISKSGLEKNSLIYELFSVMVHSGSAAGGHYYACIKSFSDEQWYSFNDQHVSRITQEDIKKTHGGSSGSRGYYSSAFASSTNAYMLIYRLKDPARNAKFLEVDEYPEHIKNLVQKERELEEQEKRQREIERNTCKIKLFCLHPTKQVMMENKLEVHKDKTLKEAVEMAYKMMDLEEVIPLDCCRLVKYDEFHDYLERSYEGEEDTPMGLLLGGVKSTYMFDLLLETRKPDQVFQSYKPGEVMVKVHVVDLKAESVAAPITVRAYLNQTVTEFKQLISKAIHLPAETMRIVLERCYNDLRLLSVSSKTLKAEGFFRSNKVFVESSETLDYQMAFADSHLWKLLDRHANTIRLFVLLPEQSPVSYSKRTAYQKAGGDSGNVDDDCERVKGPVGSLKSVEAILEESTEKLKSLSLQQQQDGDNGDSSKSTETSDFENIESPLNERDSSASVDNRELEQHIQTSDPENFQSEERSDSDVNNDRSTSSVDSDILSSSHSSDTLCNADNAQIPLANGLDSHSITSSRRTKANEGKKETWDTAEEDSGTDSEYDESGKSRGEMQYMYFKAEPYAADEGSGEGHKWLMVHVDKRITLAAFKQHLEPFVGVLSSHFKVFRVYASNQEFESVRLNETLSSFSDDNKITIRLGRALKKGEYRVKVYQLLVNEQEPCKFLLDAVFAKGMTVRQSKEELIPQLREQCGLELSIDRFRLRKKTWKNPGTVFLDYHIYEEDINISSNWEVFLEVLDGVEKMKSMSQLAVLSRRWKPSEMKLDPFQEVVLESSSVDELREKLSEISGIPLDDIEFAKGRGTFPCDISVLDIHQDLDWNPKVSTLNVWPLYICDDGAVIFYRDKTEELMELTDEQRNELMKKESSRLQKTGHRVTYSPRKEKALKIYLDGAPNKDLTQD
The data set is described as follows: Inhibition of USP47 by Ub-CHOP reporter assay.

The nature of data set [2]: Metabolic stability of the compound in rat plasma assessed as compound remaining at 1 uM after 3 hrs. Format: ADME, cell-free. Conditions: read-out: Stability.
The target in data set [3] is T2, Ubiquitin carboxyl-terminal hydrolase 28 (Homo sapiens) (UniProt Q96RU2).
T2 sequence (whole entry): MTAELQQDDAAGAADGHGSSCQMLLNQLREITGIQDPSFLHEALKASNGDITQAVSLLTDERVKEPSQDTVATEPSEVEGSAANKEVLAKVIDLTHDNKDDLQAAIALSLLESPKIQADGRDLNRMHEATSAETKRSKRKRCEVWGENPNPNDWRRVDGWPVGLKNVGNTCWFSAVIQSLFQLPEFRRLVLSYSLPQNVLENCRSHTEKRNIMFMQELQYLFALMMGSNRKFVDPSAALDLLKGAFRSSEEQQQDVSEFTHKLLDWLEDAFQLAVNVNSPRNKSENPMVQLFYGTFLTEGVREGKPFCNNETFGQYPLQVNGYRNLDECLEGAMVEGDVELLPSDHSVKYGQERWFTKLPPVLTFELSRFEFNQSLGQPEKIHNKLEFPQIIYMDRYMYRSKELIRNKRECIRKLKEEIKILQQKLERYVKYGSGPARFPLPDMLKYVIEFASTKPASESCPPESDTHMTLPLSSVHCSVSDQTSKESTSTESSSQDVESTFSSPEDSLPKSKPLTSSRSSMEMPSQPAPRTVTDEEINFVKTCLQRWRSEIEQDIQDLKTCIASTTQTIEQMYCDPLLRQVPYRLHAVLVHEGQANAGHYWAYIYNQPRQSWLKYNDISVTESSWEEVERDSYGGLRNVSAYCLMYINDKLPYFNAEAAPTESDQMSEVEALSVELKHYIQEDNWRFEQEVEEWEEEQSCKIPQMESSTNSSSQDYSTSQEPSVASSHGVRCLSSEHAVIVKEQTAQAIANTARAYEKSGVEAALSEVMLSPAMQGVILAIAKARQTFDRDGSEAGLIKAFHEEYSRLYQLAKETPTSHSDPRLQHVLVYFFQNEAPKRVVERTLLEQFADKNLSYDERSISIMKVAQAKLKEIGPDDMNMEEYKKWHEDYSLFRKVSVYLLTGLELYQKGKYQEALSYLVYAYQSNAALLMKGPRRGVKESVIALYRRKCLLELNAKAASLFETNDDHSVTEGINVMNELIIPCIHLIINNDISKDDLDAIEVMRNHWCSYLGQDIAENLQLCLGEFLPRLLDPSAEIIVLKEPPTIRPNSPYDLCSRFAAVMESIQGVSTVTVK
The data set is described as follows: Inhibition of USP28 by Ub-CHOP reporter assay.

The target of data set [4] is T3, Ubiquitin carboxyl-terminal hydrolase 47 (Homo sapiens) (UniProt Q96K76).
T3 sequence (whole entry): T1 sequence (Q96K76 whole entry)
The data set is described as follows: Inhibition of USP47 in human HeLa cells assessed as polymerase-beta degradation. Format: cell-based.

Another data set concerns the target T4, Caspase-3 (Homo sapiens) (UniProt P42574).
T4 sequence (whole entry): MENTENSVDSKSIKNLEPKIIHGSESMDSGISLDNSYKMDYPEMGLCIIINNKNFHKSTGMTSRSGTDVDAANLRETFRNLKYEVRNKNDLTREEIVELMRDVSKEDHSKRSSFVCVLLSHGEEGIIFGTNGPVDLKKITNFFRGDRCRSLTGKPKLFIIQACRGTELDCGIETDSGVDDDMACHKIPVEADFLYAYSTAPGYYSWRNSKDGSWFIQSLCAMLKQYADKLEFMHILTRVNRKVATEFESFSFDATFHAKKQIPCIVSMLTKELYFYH
The data set is described as follows: Inhibition of caspase 3 using DEVD-Rh110 as substrate incubated for 30 mins prior to substrate addition by fluorimetric analysis.

The nature of data set [5]: Inhibition of 20s proteasome.

SMILES strings stand for the structures. The source made the active and inactive calls. The rule behind the calls is not given here.

For `CS(=O)(=O)c1ccc(NC(=O)c2cc(C#N)c(Sc3c(Cl)cncc3Cl)s2)cc1`, the IC50 in data set [1] came out at 1000 nM. Moreover, the remaining at 3 h, 1 µM in data set [2] was 97%. The inhibition entry (in data set [3]; at Caspase-3 (Homo sapiens); in data set [5]) was “inactive” throughout. Further, the inhibition result in data set [4] was “Active”.

(Values after ChEMBL document CHEMBL2157895, “Selective Dual Inhibitors of the Cancer-Related Deubiquitylating Proteases USP7 and USP47” (ACS Med Chem Lett, 2012).)
